Source: patent publication US20240132457A1, “3-(2-(BENZO[D]THIAZOL-2-YL)-2-(PHENYLSUFONAMIDO)ETHYL)BENZIMIDAMIDE DERIVATIVES AND RELATED COMPOUNDS AS TMPRSS2 INHIBITORS FOR THE TREATMENT OF VIRAL INFECTIONS” (INTEGERBIO, INC., priority 2020, published 2024)

Columns and labels:
Type in all cases: biochemical
[1] = molecular target: T1, Recombinant human TMPRSS2 protein (106-492 aa) (Homo sapiens, UniProt O15393); assay: TMPRSS2 Assay 1 (Example 41), fluorogenic Boc-Gln-Ala-Arg-AMC cleavage; settings: TMPRSS2 10 nM, substrate 25 μM, 20 min pre-incubation
T1 construct: Human TMPRSS2-(AA 106-492)-; purchased CusaBio CSB-YP023924HU; host or cells: yeast
Procedure: The enzyme (TMPRSS2, CusaBio cat #CSB-YP023924HU. Recombinant human TMPRSS2 protein (106-492 aa)N-terminal 6×His-tagged (“6×His” disclosed as SEQ ID NO: 4), expressed in yeast cells; MW=44.8 kDa, lyophilized from 20 mM: Tris HCl, 0.5 M NaCl, 6% Trehalose, pH 8.0, >85% purity as determined by SDS-PAGE. Uniprot: 015393; 10 nM in the reaction) and substrate (Boc-Gln-Ala-Arg-AMC; Enzo Cat #BML-P237-0005, MW=581.76 Da. 25 μM in the reaction) were prepared in Reaction Buffer (50 mM Tris-HCl pH 8, 150 mM NaCl, 0.005% Brij35, 1% DMSO). After the enzyme solution was delivered into the reaction well, the compounds in DMSO were delivered to the reaction mixture by using Acoustic Technology (Echo 550, LabCyte Inc. Sunnyvale, CA) in nanoliter range. After 20 min pre-incubation, the substrate solution was delivered into the reaction well to initiate the reaction. The enzyme activities were monitored every 5 min as a time-course measurement of the increase in fluorescence signal from fluorescently-labeled peptide substrate for 120 min. at room temperature. Data was analyzed by taking slope*(signal/time) of linear portion of measurement. The slope was calculated using Excel, and the curve fits were performed using Prism software.

ACE2 = ACE2 (Homo sapiens, UniProt Q9BYF1); assay: Non-TMPRSS2 protease panel: ACE2; settings: 10-dose, 3-fold from 10 μM
Procedure: (§1) Biochemical activity of compound 1 (racemic mixture, batch 1), compound 3 (racemic), compound 11, and compound 2 (enantiomer 1, batch 1) in proteases indicated in Table 21, Table 22, Table 23, and Table 24, respectively, were measured by testing the compounds in a 10-dose IC50 with a 3-fold series dilution starting at 10 μM against the proteases. The protease activities were monitored as a time-course measurement of the increase in fluorescence signal from fluorescently-labeled peptide substrate, and initial linear portion of slope (signal/min) was analyzed. The curve fits were performed when the activities at the highest concentration of compounds were less than 65%.

FXa = molecular target: T2, FXa (Homo sapiens, UniProt P00742); assay: Non-TMPRSS2 protease panel: FXa; settings: 10-dose, 3-fold from 10 μM
T2 construct: consisting of FXa, Kallikrein 1, MMP 1
Procedure: as §1

Furin = Furin (Homo sapiens, UniProt P09958); assay: Non-TMPRSS2 protease panel: Furin; settings: 10-dose, 3-fold from 10 μM
Procedure: as §1

Kallikrein 1 = Kallikrein 1 (Homo sapiens, UniProt P06870); assay: Non-TMPRSS2 protease panel: Kallikrein 1; settings: 10-dose, 3-fold from 10 μM
Procedure: as §1

Kallikrein 5 = molecular target: T3, Kallikrein 5 (Homo sapiens, UniProt Q9Y337); assay: Non-TMPRSS2 protease panel: Kallikrein 5; settings: 10-dose, 3-fold from 10 μM
T3 sequence (Q9Y337 23-293): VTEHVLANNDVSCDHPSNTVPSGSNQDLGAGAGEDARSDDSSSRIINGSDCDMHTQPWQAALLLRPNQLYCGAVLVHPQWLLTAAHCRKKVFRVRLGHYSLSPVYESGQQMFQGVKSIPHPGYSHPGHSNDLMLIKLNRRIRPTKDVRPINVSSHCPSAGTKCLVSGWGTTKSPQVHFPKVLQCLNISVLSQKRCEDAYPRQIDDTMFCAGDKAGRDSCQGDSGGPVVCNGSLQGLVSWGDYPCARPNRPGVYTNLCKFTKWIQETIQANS
Procedure: as §1

MMP 1 = molecular target: T4, MMP 1 (Homo sapiens, UniProt P03956); assay: Non-TMPRSS2 protease panel: MMP 1; settings: 10-dose, 3-fold from 10 μM
T4 sequence (P03956 100-469): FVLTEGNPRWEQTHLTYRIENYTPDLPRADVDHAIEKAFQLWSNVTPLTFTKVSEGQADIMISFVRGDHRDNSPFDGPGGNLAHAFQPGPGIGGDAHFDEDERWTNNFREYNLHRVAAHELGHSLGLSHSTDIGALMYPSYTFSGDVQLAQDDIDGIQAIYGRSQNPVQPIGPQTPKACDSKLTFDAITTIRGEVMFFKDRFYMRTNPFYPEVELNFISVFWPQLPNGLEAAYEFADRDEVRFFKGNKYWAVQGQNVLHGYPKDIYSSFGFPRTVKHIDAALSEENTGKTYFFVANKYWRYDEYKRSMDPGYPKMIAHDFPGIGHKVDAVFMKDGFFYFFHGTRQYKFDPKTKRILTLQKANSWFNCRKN
Procedure: as §1

MMP 7 = molecular target: T5, MMP 7 (Homo sapiens, UniProt P09237); assay: Non-TMPRSS2 protease panel: MMP 7; settings: 10-dose, 3-fold from 10 μM
T5 sequence (P09237 95-267): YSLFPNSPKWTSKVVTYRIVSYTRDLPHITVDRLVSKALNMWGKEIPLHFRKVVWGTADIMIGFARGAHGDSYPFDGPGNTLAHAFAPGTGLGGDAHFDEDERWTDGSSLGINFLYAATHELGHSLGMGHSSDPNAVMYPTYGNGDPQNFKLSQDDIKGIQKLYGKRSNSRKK
Procedure: as §1

MMP 13 = MMP 13 (Homo sapiens, UniProt P45452); assay: Non-TMPRSS2 protease panel: MMP 13; settings: 10-dose, 3-fold from 10 μM
Procedure: as §1

Plasmin = Plasmin (Homo sapiens, UniProt P00747); assay: Non-TMPRSS2 protease panel: Plasmin; settings: 10-dose, 3-fold from 10 μM
Procedure: as §1

PLpro = molecular target: T6, PLpro (Severe acute respiratory syndrome coronavirus 2, UniProt P0DTD1); assay: Non-TMPRSS2 protease panel: PLpro; settings: 10-dose, 3-fold from 10 μM
T6 construct: Plasma Kallikrein, Plasmin, Plpro, TACE
Procedure: as §1

TACE = TACE (Homo sapiens, UniProt P78536); assay: Non-TMPRSS2 protease panel: TACE; settings: 10-dose, 3-fold from 10 μM
Procedure: as §1

Tryptase b2 = Tryptase b2 (Homo sapiens, UniProt P20231); assay: Non-TMPRSS2 protease panel: Tryptase b2; settings: 10-dose, 3-fold from 10 μM
Procedure: as §1

Furin, sequence (P09958 108-794): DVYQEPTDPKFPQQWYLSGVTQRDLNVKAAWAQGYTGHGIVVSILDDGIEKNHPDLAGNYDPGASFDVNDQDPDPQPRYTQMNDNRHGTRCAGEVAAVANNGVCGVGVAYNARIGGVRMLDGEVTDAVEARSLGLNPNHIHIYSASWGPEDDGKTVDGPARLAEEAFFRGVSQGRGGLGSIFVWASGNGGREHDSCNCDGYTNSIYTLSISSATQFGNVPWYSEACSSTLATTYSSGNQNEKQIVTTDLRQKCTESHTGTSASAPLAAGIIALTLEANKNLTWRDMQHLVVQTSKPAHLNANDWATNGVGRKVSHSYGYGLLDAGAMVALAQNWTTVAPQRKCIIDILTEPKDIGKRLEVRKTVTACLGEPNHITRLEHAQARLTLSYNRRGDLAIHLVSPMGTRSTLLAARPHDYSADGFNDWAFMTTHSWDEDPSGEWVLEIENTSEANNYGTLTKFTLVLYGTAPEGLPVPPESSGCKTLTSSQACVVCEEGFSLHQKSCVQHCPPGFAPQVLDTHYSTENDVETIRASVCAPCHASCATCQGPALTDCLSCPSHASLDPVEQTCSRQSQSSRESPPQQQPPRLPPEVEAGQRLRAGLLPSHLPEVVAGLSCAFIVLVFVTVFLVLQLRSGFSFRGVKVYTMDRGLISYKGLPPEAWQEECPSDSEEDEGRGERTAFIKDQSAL
ACE2, sequence (Q9BYF1 18-805): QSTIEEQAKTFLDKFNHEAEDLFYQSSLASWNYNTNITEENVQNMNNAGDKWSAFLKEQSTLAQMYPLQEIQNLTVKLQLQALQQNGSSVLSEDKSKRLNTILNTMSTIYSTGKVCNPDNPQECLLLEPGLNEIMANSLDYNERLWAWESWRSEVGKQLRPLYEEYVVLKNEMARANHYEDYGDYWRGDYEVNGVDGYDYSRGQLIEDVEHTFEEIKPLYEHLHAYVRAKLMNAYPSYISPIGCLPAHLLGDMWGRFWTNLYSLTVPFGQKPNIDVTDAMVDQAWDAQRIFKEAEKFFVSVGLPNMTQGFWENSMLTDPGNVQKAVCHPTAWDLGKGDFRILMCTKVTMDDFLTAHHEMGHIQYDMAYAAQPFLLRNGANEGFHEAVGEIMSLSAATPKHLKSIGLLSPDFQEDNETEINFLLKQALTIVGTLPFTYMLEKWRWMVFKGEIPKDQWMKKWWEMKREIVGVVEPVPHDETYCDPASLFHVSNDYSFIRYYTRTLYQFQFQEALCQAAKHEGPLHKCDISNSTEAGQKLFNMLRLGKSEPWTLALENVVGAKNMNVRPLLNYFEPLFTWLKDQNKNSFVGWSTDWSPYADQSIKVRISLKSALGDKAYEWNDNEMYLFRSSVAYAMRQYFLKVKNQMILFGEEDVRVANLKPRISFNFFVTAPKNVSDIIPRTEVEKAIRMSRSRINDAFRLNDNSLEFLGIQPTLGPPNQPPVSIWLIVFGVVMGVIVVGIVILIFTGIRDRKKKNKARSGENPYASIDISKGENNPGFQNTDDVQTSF
T1 sequence (O15393 106-492): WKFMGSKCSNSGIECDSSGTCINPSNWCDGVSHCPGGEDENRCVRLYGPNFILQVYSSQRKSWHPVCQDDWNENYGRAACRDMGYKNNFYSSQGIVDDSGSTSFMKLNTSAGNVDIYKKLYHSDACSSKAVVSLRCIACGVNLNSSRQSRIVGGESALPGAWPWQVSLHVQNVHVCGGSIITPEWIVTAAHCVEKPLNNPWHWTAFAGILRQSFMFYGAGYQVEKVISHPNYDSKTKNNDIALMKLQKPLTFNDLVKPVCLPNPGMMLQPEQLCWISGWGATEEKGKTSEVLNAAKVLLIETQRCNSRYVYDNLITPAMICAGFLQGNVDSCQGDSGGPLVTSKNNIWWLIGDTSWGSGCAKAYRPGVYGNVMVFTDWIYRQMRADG
Tryptase b2, sequence (P20231 31-275): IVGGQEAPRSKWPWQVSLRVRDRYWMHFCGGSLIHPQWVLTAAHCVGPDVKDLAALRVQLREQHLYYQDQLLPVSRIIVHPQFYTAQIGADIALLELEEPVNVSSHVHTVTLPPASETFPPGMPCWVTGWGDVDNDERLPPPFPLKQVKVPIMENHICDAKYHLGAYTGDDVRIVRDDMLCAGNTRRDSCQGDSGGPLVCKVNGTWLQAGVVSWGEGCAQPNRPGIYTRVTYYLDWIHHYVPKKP
Kallikrein 1, sequence (P06870 25-262): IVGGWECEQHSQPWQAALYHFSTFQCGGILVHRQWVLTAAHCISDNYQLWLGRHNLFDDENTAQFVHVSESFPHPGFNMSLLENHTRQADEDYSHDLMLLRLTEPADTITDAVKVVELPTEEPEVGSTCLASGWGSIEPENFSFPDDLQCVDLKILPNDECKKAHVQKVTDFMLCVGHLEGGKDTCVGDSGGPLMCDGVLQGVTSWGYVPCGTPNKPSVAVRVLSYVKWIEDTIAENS
Plasmin, sequence (P00747 581-810 limits assumed, species assumed): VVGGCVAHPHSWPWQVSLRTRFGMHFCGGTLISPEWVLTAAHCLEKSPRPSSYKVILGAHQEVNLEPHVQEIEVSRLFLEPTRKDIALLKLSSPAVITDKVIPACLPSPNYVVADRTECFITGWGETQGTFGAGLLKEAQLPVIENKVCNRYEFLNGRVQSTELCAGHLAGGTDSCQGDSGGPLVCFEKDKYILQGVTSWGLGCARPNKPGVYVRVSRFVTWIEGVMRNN
Plasmin, sequence (P00747 97-580 partner limits assumed, species assumed): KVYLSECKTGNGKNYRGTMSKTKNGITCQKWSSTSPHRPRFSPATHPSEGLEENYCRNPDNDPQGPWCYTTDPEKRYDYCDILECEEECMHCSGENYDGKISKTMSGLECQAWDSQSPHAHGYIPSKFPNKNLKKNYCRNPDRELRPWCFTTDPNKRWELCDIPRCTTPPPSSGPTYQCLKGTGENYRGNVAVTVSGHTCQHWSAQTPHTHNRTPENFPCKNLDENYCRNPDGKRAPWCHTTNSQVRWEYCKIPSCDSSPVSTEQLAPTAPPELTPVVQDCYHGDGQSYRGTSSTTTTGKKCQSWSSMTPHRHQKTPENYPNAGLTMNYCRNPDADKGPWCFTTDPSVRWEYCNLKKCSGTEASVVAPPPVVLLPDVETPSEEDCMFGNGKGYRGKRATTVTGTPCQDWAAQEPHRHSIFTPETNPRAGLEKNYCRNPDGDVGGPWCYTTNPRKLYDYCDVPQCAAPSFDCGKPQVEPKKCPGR
TACE, sequence (P78536 215-824): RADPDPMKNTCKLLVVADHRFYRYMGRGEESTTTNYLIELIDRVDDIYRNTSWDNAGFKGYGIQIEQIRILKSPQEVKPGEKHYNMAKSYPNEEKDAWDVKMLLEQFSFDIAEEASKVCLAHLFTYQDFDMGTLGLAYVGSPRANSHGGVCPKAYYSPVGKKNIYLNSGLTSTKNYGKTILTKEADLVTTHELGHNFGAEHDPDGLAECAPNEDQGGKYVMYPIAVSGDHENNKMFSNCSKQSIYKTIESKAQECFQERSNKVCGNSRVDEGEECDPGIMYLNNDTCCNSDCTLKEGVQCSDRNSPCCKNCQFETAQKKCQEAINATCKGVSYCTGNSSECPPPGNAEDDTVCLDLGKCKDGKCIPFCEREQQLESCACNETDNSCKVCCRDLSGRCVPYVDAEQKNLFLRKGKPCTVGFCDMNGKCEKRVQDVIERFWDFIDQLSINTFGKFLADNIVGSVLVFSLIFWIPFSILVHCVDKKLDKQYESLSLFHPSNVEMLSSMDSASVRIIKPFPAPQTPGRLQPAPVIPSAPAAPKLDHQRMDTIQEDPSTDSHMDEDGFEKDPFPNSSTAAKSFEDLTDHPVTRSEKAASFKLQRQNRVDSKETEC
T2 sequence (P00742 235-488 limits assumed): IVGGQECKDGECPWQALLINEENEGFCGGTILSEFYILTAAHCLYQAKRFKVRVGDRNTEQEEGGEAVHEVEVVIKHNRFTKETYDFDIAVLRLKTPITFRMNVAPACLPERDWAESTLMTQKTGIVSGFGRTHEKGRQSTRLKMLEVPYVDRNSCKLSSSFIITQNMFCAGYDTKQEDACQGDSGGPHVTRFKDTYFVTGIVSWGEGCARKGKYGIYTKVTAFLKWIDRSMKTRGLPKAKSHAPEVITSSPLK
T2 sequence (P00742 41-179 partner limits assumed): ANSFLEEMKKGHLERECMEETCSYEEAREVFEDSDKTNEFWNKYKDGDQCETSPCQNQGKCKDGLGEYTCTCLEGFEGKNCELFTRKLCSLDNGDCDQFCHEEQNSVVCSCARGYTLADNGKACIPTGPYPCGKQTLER

| SMILES | IC50 [1] [µM] | IC50 (ACE2) [µM] | IC50 (FXa; FXa) [µM] | IC50 (Furin) [µM] | IC50 (Kallikrein 1) [µM] | IC50 (Kallikrein 5) [µM] | IC50 (MMP 1) [µM] | IC50 (MMP 7) [µM] | IC50 (MMP 13) [µM] | IC50 (Plasmin) [µM] | IC50 (PLpro) [µM] | IC50 (TACE) [µM] | IC50 (Tryptase b2) [µM] | IC50 (FXa; Factor Xa) [µM] |
| --- | --- | --- | --- | --- | --- | --- | --- | --- | --- | --- | --- | --- | --- | --- |
| N=C(N)c1cccc(CC(NS(=O)(=O)c2ccccc2)c2nc3ccccc3s2)c1 (racemic) [1 (racemic mixture, batch 1), 3-[2-Benzenesulfonamido-2-(1,3-benzothiazol-2-yl)ethyl]benzene-1-carboximidamide] | < 10 | > 10 | > 10 | > 10 | < 10 | > 10 | > 10 | > 10 | > 10 | > 10 | > 10 | > 10 | > 10 |  |
| N=C(N)c1cccc(CC(NS(=O)(=O)c2cccc(-c3ccc(Cl)cc3Cl)c2)c2nc3ccccc3s2)c1 (racemic) [3 (racemic), 3-[2-(1,3-Benzothiazol-2-yl)-2-{2′,4′-dichloro-[1,1′-biphenyl]-3-sulfonamido}ethyl]benzene-1-carboximidamide] | < 10 | > 10 | < 10 | > 10 | > 10 | > 10 | > 10 | > 10 | > 10 | > 10 | > 10 | > 10 | < 10 |  |
| N=C(N)c1cccc(C[C@H](NS(=O)(=O)c2ccccc2)c2nnco2)c1 (single isomer, unassigned) [Compound 2 (enantiomer 1, batch 1), 3-[2-Benzenesulfonamido-2-(1,3,4-oxadiazol-2-yl)ethyl]benzene-1-carboximidamide] | > 10 | > 10 | > 10 | > 10 | > 10 | > 10 | > 10 | > 10 | > 10 | > 10 | > 10 | > 10 | > 10 |  |
| COc1ccc2nc(C(Cc3cccc(C(=N)N)c3)NS(=O)(=O)c3ccccc3)sc2c1 (stereo not drawn) [Compound 11, 3-[2-Benzenesulfonamido-2-(6-methoxy-1,3-benzothiazol-2-yl)ethyl]benzene-1-carboximidamide] |  | > 10 |  | > 10 | < 10 | > 10 | > 10 | > 10 | > 10 | > 10 | > 10 | > 10 | > 10 | > 10 |
